Assay results reported in PubChem BioAssay (NCI).
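Interpolation was linear, between the two tested concentrations surrounding the appropriate level; five concentrations were tested over 48 hours in 96-well plates. Here, GI50 denotes the concentration required for 50% inhibition of growth. At the TGI there is no net growth.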

Columns and labels:
Assay in all cases: inhibition of tumour cell growth, NCI panel, 48 h; in the data active = GI50 below about 0.43 µM; inactive = the rest
786-0 renal = tested on: 786-0 renal
A498 renal = tested on: A498 renal
A549 NSCLC = tested on: A549 NSCLC
ACHN renal = tested on: ACHN renal
BT-549 breast = tested on: BT-549 breast
CAKI-1 renal = tested on: CAKI-1 renal
CCRF-CEM leukemia = tested on: CCRF-CEM leukemia
COLO 205 colon = tested on: COLO 205 colon
DU-145 prostate = tested on: DU-145 prostate
EKVX NSCLC = tested on: EKVX NSCLC
HCC-2998 colon = tested on: HCC-2998 colon
HCT-116 colon = tested on: HCT-116 colon
HCT-15 colon = tested on: HCT-15 colon
HL-60(TB) leukemia = tested on: HL-60(TB) leukemia
HOP-62 NSCLC = tested on: HOP-62 NSCLC
HOP-92 NSCLC = tested on: HOP-92 NSCLC
HS 578T breast = tested on: HS 578T breast
HT29 colon = tested on: HT29 colon
IGROV1 ovarian = tested on: IGROV1 ovarian
K-562 leukemia = tested on: K-562 leukemia
KM12 colon = tested on: KM12 colon
LOX IMVI melanoma = tested on: LOX IMVI melanoma
M14 melanoma = tested on: M14 melanoma
MALME-3M melanoma = tested on: MALME-3M melanoma
MCF7 breast = tested on: MCF7 breast
MDA-MB-231 breast = tested on: MDA-MB-231 breast
MDA-MB-435 = tested on: MDA-MB-435
MDA-MB-468 breast = tested on: MDA-MB-468 breast
MOLT-4 leukemia = tested on: MOLT-4 leukemia
NCI-H226 lung = tested on: NCI-H226 lung
NCI-H23 lung = tested on: NCI-H23 lung
NCI-H460 lung = tested on: NCI-H460 lung
NCI-H522 lung = tested on: NCI-H522 lung
NCI/ADR-RES ovarian = tested on: NCI/ADR-RES ovarian
OVCAR-3 ovarian = tested on: OVCAR-3 ovarian
OVCAR-4 ovarian = tested on: OVCAR-4 ovarian
OVCAR-5 ovarian = tested on: OVCAR-5 ovarian
OVCAR-8 ovarian = tested on: OVCAR-8 ovarian
PC-3 prostate = tested on: PC-3 prostate
RPMI-8226 leukemia = tested on: RPMI-8226 leukemia
RXF 393 renal = tested on: RXF 393 renal
SF-268 CNS = tested on: SF-268 CNS
SF-295 CNS = tested on: SF-295 CNS
SF-539 CNS = tested on: SF-539 CNS
SK-MEL-2 melanoma = tested on: SK-MEL-2 melanoma
SK-MEL-28 melanoma = tested on: SK-MEL-28 melanoma
SK-MEL-5 melanoma = tested on: SK-MEL-5 melanoma
SK-OV-3 ovarian = tested on: SK-OV-3 ovarian
SN12C renal = tested on: SN12C renal
SNB-19 CNS = tested on: SNB-19 CNS
SNB-75 CNS = tested on: SNB-75 CNS
SR leukemia = tested on: SR leukemia
SW-620 colon = tested on: SW-620 colon
T-47D breast = tested on: T-47D breast
TK-10 renal = tested on: TK-10 renal
U251 CNS = tested on: U251 CNS
UACC-257 melanoma = tested on: UACC-257 melanoma
UACC-62 melanoma = tested on: UACC-62 melanoma
UO-31 renal = tested on: UO-31 renal

COCOc1cc2c(=O)c(C)c(C(=O)N[C@@H](Cc3ccccc3)C(O)C(=O)NCc3ccccc3)oc2cc1OC (stereo partly drawn)
> 100 µM: TGI (786-0 renal) | TGI (A498 renal) | TGI (A549 NSCLC) | TGI (ACHN renal) | TGI (BT-549 breast) | TGI (CAKI-1 renal) | TGI (CCRF-CEM leukemia) | TGI (COLO 205 colon) | TGI (DU-145 prostate) | TGI (EKVX NSCLC) | TGI (HCC-2998 colon) | TGI (HCT-116 colon) | TGI (HCT-15 colon) | TGI (HL-60(TB) leukemia) | TGI (HOP-62 NSCLC) | TGI (HOP-92 NSCLC) | TGI (HS 578T breast) | TGI (HT29 colon) | TGI (IGROV1 ovarian) | TGI (K-562 leukemia) | TGI (KM12 colon) | TGI (LOX IMVI melanoma) | TGI (M14 melanoma) | TGI (MALME-3M melanoma) | TGI (MCF7 breast) | TGI (MDA-MB-231 breast) | TGI (MDA-MB-435) | TGI (MDA-MB-468 breast) | TGI (MOLT-4 leukemia) | TGI (NCI-H226 lung) | TGI (NCI-H23 lung) | TGI (NCI-H460 lung) | TGI (NCI-H522 lung) | TGI (NCI/ADR-RES ovarian) | TGI (OVCAR-3 ovarian) | TGI (OVCAR-4 ovarian) | TGI (OVCAR-5 ovarian) | TGI (OVCAR-8 ovarian) | TGI (PC-3 prostate) | TGI (RPMI-8226 leukemia) | TGI (RXF 393 renal) | TGI (SF-268 CNS) | TGI (SF-295 CNS) | TGI (SF-539 CNS) | TGI (SK-MEL-2 melanoma) | TGI (SK-MEL-28 melanoma) | TGI (SK-MEL-5 melanoma) | TGI (SK-OV-3 ovarian) | TGI (SN12C renal) | TGI (SNB-19 CNS) | TGI (SNB-75 CNS) | TGI (SR leukemia) | TGI (SW-620 colon) | TGI (T-47D breast) | TGI (TK-10 renal) | TGI (U251 CNS) | TGI (UACC-257 melanoma) | TGI (UACC-62 melanoma) | TGI (UO-31 renal)
inactive: GI50 (786-0 renal) > 100 µM | GI50 (A498 renal) > 100 µM | GI50 (A549 NSCLC) > 100 µM | GI50 (ACHN renal) > 100 µM | GI50 (BT-549 breast) > 100 µM | GI50 (CAKI-1 renal) > 100 µM | GI50 (CCRF-CEM leukemia) > 100 µM | GI50 (COLO 205 colon) > 100 µM | GI50 (DU-145 prostate) > 100 µM | GI50 (EKVX NSCLC) > 100 µM | GI50 (HCC-2998 colon) > 100 µM | GI50 (HCT-116 colon) > 100 µM | GI50 (HCT-15 colon) > 100 µM | GI50 (HL-60(TB) leukemia) > 100 µM | GI50 (HOP-62 NSCLC) > 100 µM | GI50 (HOP-92 NSCLC) > 100 µM | GI50 (HS 578T breast) > 100 µM | GI50 (HT29 colon) > 100 µM | GI50 (IGROV1 ovarian) > 100 µM | GI50 (K-562 leukemia) > 100 µM | GI50 (KM12 colon) > 100 µM | GI50 (LOX IMVI melanoma) > 100 µM | GI50 (M14 melanoma) 62.5 µM | GI50 (MALME-3M melanoma) > 100 µM | GI50 (MCF7 breast) > 100 µM | GI50 (MDA-MB-231 breast) > 100 µM | GI50 (MDA-MB-435) > 100 µM | GI50 (MDA-MB-468 breast) > 100 µM | GI50 (MOLT-4 leukemia) > 100 µM | GI50 (NCI-H226 lung) > 100 µM | GI50 (NCI-H23 lung) > 100 µM | GI50 (NCI-H460 lung) > 100 µM | GI50 (NCI-H522 lung) > 100 µM | GI50 (NCI/ADR-RES ovarian) > 100 µM | GI50 (OVCAR-3 ovarian) > 100 µM | GI50 (OVCAR-4 ovarian) > 100 µM | GI50 (OVCAR-5 ovarian) > 100 µM | GI50 (OVCAR-8 ovarian) > 100 µM | GI50 (PC-3 prostate) > 100 µM | GI50 (RPMI-8226 leukemia) > 100 µM | GI50 (RXF 393 renal) > 100 µM | GI50 (SF-268 CNS) > 100 µM | GI50 (SF-295 CNS) > 100 µM | GI50 (SF-539 CNS) 38.3 µM | GI50 (SK-MEL-2 melanoma) > 100 µM | GI50 (SK-MEL-28 melanoma) > 100 µM | GI50 (SK-MEL-5 melanoma) > 100 µM | GI50 (SK-OV-3 ovarian) > 100 µM | GI50 (SN12C renal) > 100 µM | GI50 (SNB-19 CNS) > 100 µM | GI50 (SNB-75 CNS) 96.7 µM | GI50 (SR leukemia) > 100 µM | GI50 (SW-620 colon) > 100 µM | GI50 (T-47D breast) > 100 µM | GI50 (TK-10 renal) > 100 µM | GI50 (U251 CNS) > 100 µM | GI50 (UACC-257 melanoma) > 100 µM | GI50 (UACC-62 melanoma) > 100 µM | GI50 (UO-31 renal) > 100 µM
